Values joined by “and” are separate entries in the source; they are usually repeats but may differ in a detail not shown here. Equal values may be shown once. “Also recorded” adds a separate entry of the source. Read-outs that look alike come from different tables or passages of the source.
Test system: Coptotermes formosanus
Conditions: for Surface Activity (termites on the surface of the soil) / Tunneling Activity / Visible Mortality / repellent effect on termites (surface activity data) / termite mortality by the end of the incubation period / toxic value, lower (concentration at which the wood is no longer sufficiently protected) / toxic value, upper (lowest concentration which protects the wood) / Mean Rating (termite attack) / Termite Attack Rating: ethanol carrier; for reduction in termite attack: concentrated solutions, followed by leaching; for termite mortality by the end of the incubation period: higher concentrations; for toxic value, lower (concentration at which the wood is no longer sufficiently protected) / toxic value, upper (lowest concentration which protects the wood): mean loading, leached; for toxic value, lower (concentration at which the wood is no longer sufficiently protected): solution concentration 5%; for toxic value, upper (lowest concentration which protects the wood): solution concentration 7%; for Mean Rating (termite attack): mean of 4 specimens; for Mean Rating (termite attack) / Termite Attack Rating: 4 weeks sand culture; for Termite Attack Rating: single specimen
From the text: A laboratory test was undertaken to determine the toxic values of novel actives against termites. The active materials used were TBBA, TBBE [4,4′-ethylidenebis(2,6-dibromophenol)] [CAS RN=12639-25-3] (Sample Number 1392-82-03); TBBZ [4,4′-cyclohexylidene(2,6-dibromophenol)] [CAS RN=53350-96-2] (Sample Number 1392-72-03) and TBA, 2,2′,6-tribromo-4,4′-isopropylidenediphenol, CAS 6386-73-8 (Sample Number 1392-75-03).
The test was undertaken largely according to the strictures laid down in ASTM 3345-74 (the American standard laboratory test to assess the termite resistant properties of wood to wood destroying termites). The test method allows for the exposure of treated buried wood blocks to termites (Reticulitermes or Coptotermes spp.) over a period of 4 weeks. Efficacy of the product is determined by the extent of termite damage to the treated timber specimens through a scoring system. The test was slightly modified from the standard ASTM test by reducing the number of replicate wood specimens from 5 to 4.
Score 1: Attempted attack
The toxic values of the preservative product (in kg/m^3 of wood) fall between two values as follows:
1) The lowest concentration which protects the wood (i.e. the concentration at which none of the test specimens show a degree of attack greater than 1).
The termites employed were Coptotermes formosanus.
All wood bock specimens were of Southern Yellow Pine sapwood (Pinus spp.) with dimensions of 25.4×25.4×6.4 mm in accordance with ASTM D3345-74. All blocks were vacuum impregnated with the relevant solutions in accordance with ASTM D3345-74. Distribution of blocks in the test was as follows:
The test specimens were conditioned and subjected to a leaching schedule (after vacuum impregnation) as stipulated in ASTM D1413-76 (as recommended in ASTM D3345-74). All test specimens were then air dried for two weeks to constant weight.
The specimens were each positioned at the base of a 500 ml polyethylene culture jar (numbered according to each test specimen) and covered with 200 g of sand (pre-washed, sterilised and air conditioned in the laboratory) to which was added 25 g of de-ionised water. A further two containers containing watered sand but no timber were also prepared. All the jars were sealed (lids pre-pierced and covered with stainless steel mesh for aeration).
Two days after specimen placement, 200 termites were added to each culture jar (90% workers and 10% soldiers) and the jars re-sealed. The jars were incubated at a mean temperature and relative humidity of 27.5° C. and 75-90% for 4 weeks. The containers were provided with an artificial lighting regime of 10 hours light and 14 hours darkness.
After 1 week and 4 weeks each container was examined to determine termite mortality and normal tunneling behaviour patterns as follows:
Is there tunneling present: YES/NO
Are there any termites on the surface of the soil: YES/NO (if yes how many, i.e. 1-25% of pop, 26-50% of pop, 51-100% of pop.)
Are any dead termites visible: YES/NO (if yes how many, 1-33%, 34-66%, 67-100%)
After 4 weeks the test specimens were removed and cleaned of debris. Each block was examined and visually rated for termite damage using the scoring system detailed above.
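For Termite Attack Rating in this document: score 0 no attack 2 slight 3 average 4 strong attack.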

Compound: CC(C)(c1ccc(O)c(Br)c1)c1cc(Br)c(O)c(Br)c1 [TBA, 2,2′,6-tribromo-4,4′-isopropylidenediphenol]
- Surface Activity (termites on the surface of the soil) (1 week, solution conc. 1%): No/No
- Tunneling Activity (1 week, solution conc. 1%): Yes/Yes
- Visible Mortality (1 week, solution conc. 1%): No/No
- Surface Activity (termites on the surface of the soil) (1 week, solution conc. 3%): No/No
- Tunneling Activity (1 week, solution conc. 3%): Yes/Yes
- Visible Mortality (1 week, solution conc. 3%): No
- Surface Activity (termites on the surface of the soil) (1 week, solution conc. 5%): No/No
- Tunneling Activity (1 week, solution conc. 5%): Yes/Yes
- Visible Mortality (1 week, solution conc. 5%): No
- Surface Activity (termites on the surface of the soil) (1 week, solution conc. 7%): No/No
- Tunneling Activity (1 week, solution conc. 7%): Yes/Yes
- Visible Mortality (1 week, solution conc. 7%): No
- Surface Activity (termites on the surface of the soil) (1 week, solution conc. 10%): No/No
- Tunneling Activity (1 week, solution conc. 10%): Yes/Yes
- Visible Mortality (1 week, solution conc. 10%): No
- Surface Activity (termites on the surface of the soil) (4 weeks, solution conc. 1%): No/No
- Tunneling Activity (4 weeks, solution conc. 1%): Yes/Yes
- Visible Mortality (4 weeks, solution conc. 1%): No/No
- Surface Activity (termites on the surface of the soil) (4 weeks, solution conc. 3%): No/No
- Tunneling Activity (4 weeks, solution conc. 3%): Yes/Yes
- Visible Mortality (4 weeks, solution conc. 3%): 1-33 % (of pop.)
- Surface Activity (termites on the surface of the soil) (4 weeks, solution conc. 5%): No/No
- Tunneling Activity (4 weeks, solution conc. 5%): Yes/Yes
- Visible Mortality (4 weeks, solution conc. 5%): 34-66 % (of pop.)
- Surface Activity (termites on the surface of the soil) (4 weeks, solution conc. 7%): No/No
- Tunneling Activity (4 weeks, solution conc. 7%): Yes/Yes
- Visible Mortality (4 weeks, solution conc. 7%): 34-66 % (of pop.)
- Surface Activity (termites on the surface of the soil) (4 weeks, solution conc. 10%): No/No
- Tunneling Activity (4 weeks, solution conc. 10%): Yes/Yes
- Visible Mortality (4 weeks, solution conc. 10%): 34-66 % (of pop.)
- reduction in termite attack: a significant reduction in termite attack
- repellent effect on termites (surface activity data): no repellent effect
- termite mortality by the end of the incubation period: 34-66%
- toxic value, lower (concentration at which the wood is no longer sufficiently protected) (4 weeks): 30.17 kg/m^3
- toxic value, upper (lowest concentration which protects the wood) (4 weeks): 41.22 kg/m^3
- Mean Rating (termite attack) (solution conc. 1%): 3.00
- Termite Attack Rating (solution conc. 1%): 3 and 2 and 4
- Mean Rating (termite attack) (solution conc. 3%): 1.75
- Termite Attack Rating (solution conc. 3%): 2 and 1
- Mean Rating (termite attack) (solution conc. 5%): 1.75
- Termite Attack Rating (solution conc. 5%): 2 and 1
- Mean Rating (termite attack) (solution conc. 7%): 1.00
- Termite Attack Rating (solution conc. 7%): 1
- Mean Rating (termite attack) (solution conc. 10%): 1.00
- Termite Attack Rating (solution conc. 10%): 1

Compound: Oc1c(Br)cc(C2(c3cc(Br)c(O)c(Br)c3)CCCCC2)cc1Br [TBBZ, 4,4′-cyclohexylidene(2,6-dibromophenol)]
- Surface Activity (termites on the surface of the soil) (1 week, solution conc. 1%): No/No
- Tunneling Activity (1 week, solution conc. 1%): Yes/Yes
- Visible Mortality (1 week, solution conc. 1%): No/No
- Surface Activity (termites on the surface of the soil) (1 week, solution conc. 3%): No/No
- Tunneling Activity (1 week, solution conc. 3%): Yes/Yes
- Visible Mortality (1 week, solution conc. 3%): No
- Surface Activity (termites on the surface of the soil) (1 week, solution conc. 5%): No/No
- Tunneling Activity (1 week, solution conc. 5%): Yes/Yes
- Visible Mortality (1 week, solution conc. 5%): No
- Surface Activity (termites on the surface of the soil) (1 week, solution conc. 7%): 1-25 % (of pop.)
- Tunneling Activity (1 week, solution conc. 7%): Yes/Yes
- Visible Mortality (1 week, solution conc. 7%): No
- Surface Activity (termites on the surface of the soil) (1 week, solution conc. 10%): 1-25 % (of pop.)
- Tunneling Activity (1 week, solution conc. 10%): Yes/Yes
- Visible Mortality (1 week, solution conc. 10%): No
- Surface Activity (termites on the surface of the soil) (4 weeks, solution conc. 1%): No/No
- Tunneling Activity (4 weeks, solution conc. 1%): Yes/Yes
- Visible Mortality (4 weeks, solution conc. 1%): No/No
- Surface Activity (termites on the surface of the soil) (4 weeks, solution conc. 3%): No/No
- Tunneling Activity (4 weeks, solution conc. 3%): Yes/Yes
- Visible Mortality (4 weeks, solution conc. 3%): 1-33 % (of pop.)
- Surface Activity (termites on the surface of the soil) (4 weeks, solution conc. 5%): No/No
- Tunneling Activity (4 weeks, solution conc. 5%): Yes/Yes
- Visible Mortality (4 weeks, solution conc. 5%): 34-66 % (of pop.)
- Surface Activity (termites on the surface of the soil) (4 weeks, solution conc. 7%): No
- Tunneling Activity (4 weeks, solution conc. 7%): Yes/Yes
- Visible Mortality (4 weeks, solution conc. 7%): 34-66 % (of pop.)
- Surface Activity (termites on the surface of the soil) (4 weeks, solution conc. 10%): No
- Tunneling Activity (4 weeks, solution conc. 10%): Yes/Yes
- Visible Mortality (4 weeks, solution conc. 10%): 67-100 % (of pop.)
- reduction in termite attack: a significant reduction in termite attack; also recorded: the higher concentrations do reduce termite attack
- repellent effect on termites (surface activity data): a degree of termite repellency
- Mean Rating (termite attack) (solution conc. 1%): 2.50
- Termite Attack Rating (solution conc. 1%): 4 and 2
- Mean Rating (termite attack) (solution conc. 3%): 1.50
- Termite Attack Rating (solution conc. 3%): 2 and 1
- Mean Rating (termite attack) (solution conc. 5%): 1.25
- Termite Attack Rating (solution conc. 5%): 1 and 2
- Mean Rating (termite attack) (solution conc. 7%): 1.25
- Termite Attack Rating (solution conc. 7%): 1 and 2
- Mean Rating (termite attack) (solution conc. 10%): 1.25
- Termite Attack Rating (solution conc. 10%): 1 and 2

Compound: CC(c1cc(Br)c(O)c(Br)c1)c1cc(Br)c(O)c(Br)c1 [TBBE, 4,4′-ethylidenebis(2,6-dibromophenol)]
- Surface Activity (termites on the surface of the soil) (1 week, solution conc. 1%): No/No
- Tunneling Activity (1 week, solution conc. 1%): Yes/Yes
- Visible Mortality (1 week, solution conc. 1%): No/No
- Surface Activity (termites on the surface of the soil) (1 week, solution conc. 3%): No/No
- Tunneling Activity (1 week, solution conc. 3%): Yes/Yes
- Visible Mortality (1 week, solution conc. 3%): No
- Surface Activity (termites on the surface of the soil) (1 week, solution conc. 5%): No/No
- Tunneling Activity (1 week, solution conc. 5%): Yes/Yes
- Visible Mortality (1 week, solution conc. 5%): No
- Surface Activity (termites on the surface of the soil) (1 week, solution conc. 7%): 1-25%/1-25% (of % (of pop.)
- Tunneling Activity (1 week, solution conc. 7%): Yes/Yes
- Surface Activity (termites on the surface of the soil) (1 week, solution conc. 10%): 1-25%/1-25% (of % (of pop.)
- Tunneling Activity (1 week, solution conc. 10%): Yes/Yes
- Visible Mortality (1 week, solution conc. 10%): No
- Surface Activity (termites on the surface of the soil) (4 weeks, solution conc. 1%): No/No
- Tunneling Activity (4 weeks, solution conc. 1%): Yes/Yes
- Visible Mortality (4 weeks, solution conc. 1%): No/No
- Surface Activity (termites on the surface of the soil) (4 weeks, solution conc. 3%): No/No
- Tunneling Activity (4 weeks, solution conc. 3%): Yes/Yes
- Visible Mortality (4 weeks, solution conc. 3%): 1-33 % (of pop.)
- Surface Activity (termites on the surface of the soil) (4 weeks, solution conc. 5%): No/No
- Tunneling Activity (4 weeks, solution conc. 5%): Yes/Yes
- Surface Activity (termites on the surface of the soil) (4 weeks, solution conc. 7%): 1-25%/1-25% (of % (of pop.)
- Tunneling Activity (4 weeks, solution conc. 7%): Yes/Yes
- Visible Mortality (4 weeks, solution conc. 7%): 67-100 % (of pop.)
- Surface Activity (termites on the surface of the soil) (4 weeks, solution conc. 10%): 1-25%/1-25% (of % (of pop.)
- Tunneling Activity (4 weeks, solution conc. 10%): Yes/Yes
- Visible Mortality (4 weeks, solution conc. 10%): 67-100 % (of pop.)
- reduction in termite attack: a significant reduction in termite attack
- repellent effect on termites (surface activity data): a degree of termite repellency; also recorded: a repellent effect at certain stages of the incubation period; also recorded: a repellent effect early in the incubation period at higher concentrations
- termite mortality by the end of the incubation period: significant termite mortality
- toxic value, lower (concentration at which the wood is no longer sufficiently protected) (4 weeks): 28.53 kg/m^3
- toxic value, upper (lowest concentration which protects the wood) (4 weeks): 35.93 kg/m^3
- Mean Rating (termite attack) (solution conc. 1%): 3.00
- Termite Attack Rating (solution conc. 1%): 3
- Mean Rating (termite attack) (solution conc. 3%): 2.00
- Termite Attack Rating (solution conc. 3%): 2 and 3 and 1
- Mean Rating (termite attack) (solution conc. 5%): 1.50
- Termite Attack Rating (solution conc. 5%): 2 and 1
- Mean Rating (termite attack) (solution conc. 7%): 1.00
- Termite Attack Rating (solution conc. 7%): 1
- Mean Rating (termite attack) (solution conc. 10%): 1.25
- Termite Attack Rating (solution conc. 10%): 1 and 2

— US20040266885A1, “Wood preservative compositions” (priority 2001, published 2004)
